# Assay results from PubChem BioAssay AID2060502 (Molecular Pharmacology Branch, DTP, NCI, 2025).
# System: 885724-159-R-J1-PDC complex spheroid viability
# Experiment: Anticancer human tumor 885724-159-R-J1-PDC patient-derived pancreatic adenocarcinoma cell line growth inhibition [GQUAD]
# Details: for IC50: curve of first compound; for viability, T/C: stronger effect = lower value
# Summary of the method: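 Multi-cell-type spheroids of tumor cells with HUVEC and mesenchymal stem cells, treated with drug combinations. Concentrations descend in half-log steps from near clinical Cmax, or from 10 microM where Cmax is unknown; viability read-out.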
# 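Note: spheroids exposed to agents for seven days before readout.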
# 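Throughout, for viability, T/C: percent of vehicle control viability where 100% = DMSO wells.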
structure (smiles),measurement,setting,value
C=CC(=O)N1CCN(c2nc(=O)n(-c3c(C)ccnc3C(C)C)c3nc(-c4c(O)cccc4F)c(F)cc23)C(C)C1 (configuration not stated) + Cc1[nH]c2ccc(F)cc2c1-c1nc2c3cccnc3c3ncccc3c2[nH]1,IC50,second compound 0.0316 µM,> 10 µM
same,IC50,second compound 0.1 µM,> 10 µM
same,IC50,second compound 0.316 µM,> 10 µM
same,IC50,second compound 1 µM,> 10 µM
same,IC50,second compound 3.16 µM,< 0.0316 µM
same,IC50,second compound 10 µM,> 10 µM
same,"viability, T/C","second compound 0.0316 µM, first compound 0.0316 µM",97.3%
same,"viability, T/C","second compound 0.0316 µM, first compound 0.1 µM",106%
same,"viability, T/C","second compound 0.0316 µM, first compound 0.316 µM",98.4%
same,"viability, T/C","second compound 0.0316 µM, first compound 1 µM",104%
same,"viability, T/C","second compound 0.0316 µM, first compound 3.16 µM",98%
same,"viability, T/C","second compound 0.0316 µM, first compound 10 µM",97.2%
same,"viability, T/C","second compound 0.1 µM, first compound 0.0316 µM",105%
same,"viability, T/C","second compound 0.1 µM, first compound 0.1 µM",97.6%
same,"viability, T/C","second compound 0.1 µM, first compound 0.316 µM",98.7%
same,"viability, T/C","second compound 0.1 µM, first compound 1 µM",106%
same,"viability, T/C","second compound 0.1 µM, first compound 3.16 µM",109%
same,"viability, T/C","second compound 0.1 µM, first compound 10 µM",99.2%
same,"viability, T/C","second compound 0.316 µM, first compound 0.0316 µM",95.5%
same,"viability, T/C","second compound 0.316 µM, first compound 0.1 µM",105%
same,"viability, T/C","second compound 0.316 µM, first compound 0.316 µM",92.8%
same,"viability, T/C","second compound 0.316 µM, first compound 1 µM",94.3%
same,"viability, T/C","second compound 0.316 µM, first compound 3.16 µM",122%
same,"viability, T/C","second compound 0.316 µM, first compound 10 µM",88.6%
same,"viability, T/C","second compound 1 µM, first compound 0.0316 µM",73.7%
same,"viability, T/C","second compound 1 µM, first compound 0.1 µM",71.9%
same,"viability, T/C","second compound 1 µM, first compound 0.316 µM",69.7%
same,"viability, T/C","second compound 1 µM, first compound 1 µM",73.6%
same,"viability, T/C","second compound 1 µM, first compound 3.16 µM",78.7%
same,"viability, T/C","second compound 1 µM, first compound 10 µM",73.7%
same,"viability, T/C","second compound 3.16 µM, first compound 0.0316 µM",45.9%
same,"viability, T/C","second compound 3.16 µM, first compound 0.1 µM",29.1%
same,"viability, T/C","second compound 3.16 µM, first compound 0.316 µM",33.4%
same,"viability, T/C","second compound 3.16 µM, first compound 1 µM",38.5%
same,"viability, T/C","second compound 3.16 µM, first compound 3.16 µM",33.4%
same,"viability, T/C","second compound 3.16 µM, first compound 10 µM",27.8%
same,"viability, T/C","second compound 10 µM, first compound 0.0316 µM",64.3%
same,"viability, T/C","second compound 10 µM, first compound 0.1 µM",70.3%
same,"viability, T/C","second compound 10 µM, first compound 0.316 µM",72.1%
same,"viability, T/C","second compound 10 µM, first compound 1 µM",79.2%
same,"viability, T/C","second compound 10 µM, first compound 3.16 µM",73%
same,"viability, T/C","second compound 10 µM, first compound 10 µM",65.9%
